Columns and labels:
Conditions in all cases: 48 h
NOMO1 [1] = test: cell viability relative to DMSO control; higher = less cytotoxic
Outline: (§1)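 Viability was expressed as a per-plate percentage of DMSO wells, with cell-free wells as background. Leukemia cells (NOMO1 or SEM at 500 cells/well, P12-Ichikawa at 1000 cells/well) were adapted for at least four passages in each medium and seeded in 1536-well plates (5 μl). Library compounds in DMSO were pin-dosed over an 11-point threefold series from 47 μM to 0.79 nM, and CellTiter-Glo One luminescence was read after 48 h at 37°C.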

P12-Ichikawa [2] = test: as above
Outline: as §1

SEM cells [3] = test: as above
Outline: as §1

NOMO1 [4] = test: AUC of viability dose-response curve (% viability x log10 dose units); higher = less sensitive
Outline: (§2)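 Viability of medium-adapted leukemia cells was measured by CellTiter-Glo One luminescence after 48 h at 37°C with library compounds in DMSO. Doses were 11 threefold steps from 47 μM to 0.79 nM, in 1536-well plates at 500 or 1000 cells/well. Signals were normalised per plate to DMSO and cell-free wells and fitted with a four-parameter log-logistic model on log10 dose. Area under the curve was integrated by trapezoidal rule, with curves exceeding full viability scaled and failed quality-control curves removed.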

P12-Ichikawa [5] = test: as above
Outline: as §2

SEM cells [6] = test: as above
Outline: as §2

C#Cc1cccc(Nc2ncnc3cc(OCCOC)c(OCCO)cc23)c1
cell viability [%]
Conditions | NOMO1 [1] | P12-Ichikawa [2] | SEM cells [3]
HPLM + 10% dialyzed FBS, 0.000781 µM | 135 | 113 | 104
HPLM + 10% dialyzed FBS, 0.00234 µM | 110 | 111 | 113
HPLM + 10% dialyzed FBS, 0.00702 µM | 119 | 113 | 98.3
HPLM + 10% dialyzed FBS, 0.0211 µM | 119 | 109 | 117
HPLM + 10% dialyzed FBS, 0.0632 µM | 125 | 112 | 116
HPLM + 10% dialyzed FBS, 0.19 µM | 116 | 113 | 123
HPLM + 10% dialyzed FBS, 0.569 µM | 100 | 122 | 110
HPLM + 10% dialyzed FBS, 1.71 µM | 68.7 | 104 | 105
HPLM + 10% dialyzed FBS, 5.12 µM | 63.3 | 105 | 96.8
HPLM + 10% dialyzed FBS, 15.4 µM | 69.9 | 91.6 | 69.1
HPLM + 10% dialyzed FBS, 46.1 µM | 28.1 | 46.2 | 20
RPMI 5 mM glucose + 10% FBS, 0.000781 µM | 118 | 118 | –
RPMI 5 mM glucose + 10% FBS, 0.00234 µM | 105 | 101 | –
RPMI 5 mM glucose + 10% FBS, 0.00702 µM | 110 | 107 | –
RPMI 5 mM glucose + 10% FBS, 0.0211 µM | 94.6 | 119 | –
RPMI 5 mM glucose + 10% FBS, 0.0632 µM | 118 | 110 | –
RPMI 5 mM glucose + 10% FBS, 0.19 µM | 104 | 119 | –
RPMI 5 mM glucose + 10% FBS, 0.569 µM | 112 | 111 | –
RPMI 5 mM glucose + 10% FBS, 1.71 µM | 94.2 | 109 | –
RPMI 5 mM glucose + 10% FBS, 5.12 µM | 103 | 98.5 | –
RPMI 5 mM glucose + 10% FBS, 15.4 µM | 93.2 | 95.7 | –
RPMI 5 mM glucose + 10% FBS, 46.1 µM | 33.9 | 49.4 | –
RPMI 5 mM glucose + 10% dialyzed FBS, 0.000781 µM | 118 | 115 | 114
RPMI 5 mM glucose + 10% dialyzed FBS, 0.00234 µM | 123 | 110 | 107
RPMI 5 mM glucose + 10% dialyzed FBS, 0.00702 µM | 98.2 | 118 | 118
RPMI 5 mM glucose + 10% dialyzed FBS, 0.0211 µM | 112 | 110 | 114
RPMI 5 mM glucose + 10% dialyzed FBS, 0.0632 µM | 104 | 113 | 116
RPMI 5 mM glucose + 10% dialyzed FBS, 0.19 µM | 112 | 108 | 103
RPMI 5 mM glucose + 10% dialyzed FBS, 0.569 µM | 118 | 106 | 105
RPMI 5 mM glucose + 10% dialyzed FBS, 1.71 µM | 92.2 | 111 | 88.4
RPMI 5 mM glucose + 10% dialyzed FBS, 5.12 µM | 104 | 104 | 94.9
RPMI 5 mM glucose + 10% dialyzed FBS, 15.4 µM | 94.7 | 91.5 | 62.5
RPMI 5 mM glucose + 10% dialyzed FBS, 46.1 µM | 41.7 | 43.3 | 14.5

AUC of viability dose-response curve
Conditions | NOMO1 [4] | P12-Ichikawa [5] | SEM cells [6]
HPLM + 10% dialyzed FBS | 372 | 451 | 431
RPMI 5 mM glucose + 10% FBS | 455 | 453 | 400
RPMI 5 mM glucose + 10% dialyzed FBS | 455 | 451 | 417

CCC[C@@H]1C[C@@H](C(=O)N[C@@H]([C@H]2O[C@H](SC)[C@H](O)[C@@H](O)[C@H]2O)[C@@H](C)O)N(C)C1.Cl
cell viability [%]
Conditions | NOMO1 [1] | P12-Ichikawa [2] | SEM cells [3]
HPLM + 10% dialyzed FBS, 0.000781 µM | 103 | 119 | 125
HPLM + 10% dialyzed FBS, 0.00234 µM | 121 | 113 | 121
HPLM + 10% dialyzed FBS, 0.00702 µM | 123 | 122 | 118
HPLM + 10% dialyzed FBS, 0.0211 µM | 122 | 111 | 109
HPLM + 10% dialyzed FBS, 0.0632 µM | 125 | 122 | 119
HPLM + 10% dialyzed FBS, 0.19 µM | 128 | 125 | 127
HPLM + 10% dialyzed FBS, 0.569 µM | 110 | 111 | 114
HPLM + 10% dialyzed FBS, 1.71 µM | 100 | 98.8 | 122
HPLM + 10% dialyzed FBS, 5.12 µM | 79 | 97.8 | 103
HPLM + 10% dialyzed FBS, 15.4 µM | 96 | 106 | 117
HPLM + 10% dialyzed FBS, 46.1 µM | 68.8 | 100 | 91
RPMI 5 mM glucose + 10% FBS, 0.000781 µM | 129 | 119 | 110
RPMI 5 mM glucose + 10% FBS, 0.00234 µM | 121 | 114 | 114
RPMI 5 mM glucose + 10% FBS, 0.00702 µM | 107 | 106 | 105
RPMI 5 mM glucose + 10% FBS, 0.0211 µM | 111 | 112 | 99.3
RPMI 5 mM glucose + 10% FBS, 0.0632 µM | 114 | 119 | 120
RPMI 5 mM glucose + 10% FBS, 0.19 µM | 111 | 123 | 110
RPMI 5 mM glucose + 10% FBS, 0.569 µM | 124 | 89.9 | 130
RPMI 5 mM glucose + 10% FBS, 1.71 µM | 103 | 83 | 111
RPMI 5 mM glucose + 10% FBS, 5.12 µM | 111 | 96 | 111
RPMI 5 mM glucose + 10% FBS, 15.4 µM | 124 | 102 | 111
RPMI 5 mM glucose + 10% FBS, 46.1 µM | 111 | 101 | 97.4
RPMI 5 mM glucose + 10% dialyzed FBS, 0.000781 µM | 118 | 122 | 113
RPMI 5 mM glucose + 10% dialyzed FBS, 0.00234 µM | 112 | 117 | 119
RPMI 5 mM glucose + 10% dialyzed FBS, 0.00702 µM | 119 | 128 | 141
RPMI 5 mM glucose + 10% dialyzed FBS, 0.0211 µM | 105 | 140 | 118
RPMI 5 mM glucose + 10% dialyzed FBS, 0.0632 µM | 119 | 145 | 136
RPMI 5 mM glucose + 10% dialyzed FBS, 0.19 µM | 109 | 108 | 133
RPMI 5 mM glucose + 10% dialyzed FBS, 0.569 µM | 111 | 66.4 | 132
RPMI 5 mM glucose + 10% dialyzed FBS, 1.71 µM | 108 | 70 | 137
RPMI 5 mM glucose + 10% dialyzed FBS, 5.12 µM | 107 | 112 | 125
RPMI 5 mM glucose + 10% dialyzed FBS, 15.4 µM | 104 | 95.9 | 104
RPMI 5 mM glucose + 10% dialyzed FBS, 46.1 µM | 98 | 94.4 | 116

AUC of viability dose-response curve
Conditions | NOMO1 [4] | P12-Ichikawa [5] | SEM cells [6]
HPLM + 10% dialyzed FBS | 428 | 448 | 471
RPMI 5 mM glucose + 10% FBS | 463 | 438 | 473
RPMI 5 mM glucose + 10% dialyzed FBS | 457 | 399 | 465

Source: the supplement of paper PMC11451515
